# Measured values reported in patent US20230240988A1, “FLUID GEL COMPOSITIONS” (The University of Birmingham, priority 2020, published 2023).
# Where two headings read alike, the source gives them in different places.
# Experiments:
# [1] = Release assay of active agents from PEG-DA fluid gel (trans-well, UV/Vis); format: physicochemical; details: 3% v/v PEG-DA fluid gel (500 rpm), PBS 37° C., 5 hrs
# Protocol: • Active amounts: […] • Standard concentrations of active in PBS were prepared. • Standards were pipetted into a quartz cuvette (1 mm pathlength). • […] spectroscopy was used to measure absorbance between 200 and 700 nm wavelength. • Curves were plotted and used to determine standard curves which were used to determine concentrations. • 0.5 ml PBS was added to the well of a 24 well plate. • The PBS was incubated at 37° C. to equilibrate. 0.1 ml of the fluid gel containing active was placed in a trans-well insert. • The trans-well insert was placed into a well containing PBS. • After a given time period the trans-well insert was removed and placed in a fresh well of PBS. • The release media was then removed and analysed using […] spectroscopy. Concentrations were derived from the standard curves and cumulative release plotted as a function of time.
# [2] = system: primary ovine chondrocytes; assay: PrestoBlue metabolic activity assay; format: cell-based
# Protocol: All cell work was undertaken on primary ovine chondrocytes. Cells were first expanded, then seeded into wells 24 hrs prior to the application of the fluid gels. Once treatments were added, the cells were cultured for a further 3 days before testing for both metabolic activity and cell viability. In the presence of functionalised particles, suspension wells were used to promote adhesion to the gelled particles, away from the plastic. Metabolic activity assay was undertaken using a PrestoBlue™ assay kit (Invitrogen). In brief, cells were washed with Dulbecco's PBS, and 1 mL of PrestoBlue™ supplemented medium (10%) was added to each well and incubated for 4 hrs. 50 μL of supernatant from each well was transferred to one well of a 96 well plate and fluorescence was measured using a Tecan Spark (Tecan Group Ltd, UK) plate reader with excitation/emission wavelengths set at 550/620 nm.
Compound,release of active agent from fluid gel [1],also measured
"CC(C)Cc1ccc(C(C)C(=O)O)cc1 (stereo not shown) [Ibuprofen, ibuprofen]",able to release,–
"CC(C)(O)C(=O)c1ccc(OCCO)cc1 [Irgacure-2959, 1-[4-(2-Hydroxyethoxy)-phenyl]-2-hydroxy-2-methyl-1-propane-1-one]",–,"cell metabolic activity, individual formulation components [2]: slight reduction in cell metabolism"
"CC(C)(O)C(=O)c1ccccc1 [Omnirad-1173, 2-hydroxy-2-methyl-1-phenylpropanone]",–,"cell metabolic activity, individual formulation components ([2]; 3 days culture, PEG-DA not cured, 3.5% & 5%): slight reduction in cell metabolism, although not statistical"
Dextran,able to release,–
